In ChEMBL document CHEMBL2010711, “Synthesis and comparative evaluation of 4-oxa- and 4-aza-podophyllotoxins as antiproliferative microtubule destabilizing agents” (Bioorg Med Chem Lett, 2012):

Legend:
Type in all cases: functional
NCI-H23 = assay: Cytotoxicity against human NCI-H23 cells after 48 hrs by trypan blue dye exclusion assay; settings: NCI-H23, 48 h
T47D = assay: Cytotoxicity against human T47D cells after 48 hrs by trypan blue dye exclusion assay
MDA-MB-231 = assay: Cytotoxicity against human MDA-MB-231 cells after 48 hrs by trypan blue dye exclusion assay; settings: MDA-MB-231, 48 h
SNB-75 = assay: Cytotoxicity against human SNB75 cells after 48 hrs by trypan blue dye exclusion assay; settings: SNB-75, 48 h
RXF 393 = assay: Cytotoxicity against human RXF393 cells after 48 hrs by trypan blue dye exclusion assay; settings: RXF 393, 48 h
MCF7 = assay: Cytotoxicity against human MCF7 cells after 48 hrs by trypan blue dye exclusion assay; settings: MCF7, 48 h
HOP-62 = assay: Cytotoxicity against human HOP62 cells after 48 hrs by trypan blue dye exclusion assay; settings: HOP-62, 48 h
HCC 2998 = assay: Cytotoxicity against human HCC2998 cells after 48 hrs by trypan blue dye exclusion assay; settings: HCC 2998, 48 h
HOP-92 = assay: Cytotoxicity against human HOP92 cells after 48 hrs by trypan blue dye exclusion assay; settings: HOP-92, 48 h
SNB-19 = assay: Cytotoxicity against human SNB19 cells after 48 hrs by trypan blue dye exclusion assay; settings: SNB-19, 48 h
SF-268 = assay: Cytotoxicity against human SF268 cells after 48 hrs by trypan blue dye exclusion assay; settings: SF-268, 48 h
U-251 = assay: Cytotoxicity against human U251 cells after 48 hrs by trypan blue dye exclusion assay; settings: U-251, 48 h
OVCAR-3 = assay: Cytotoxicity against human OVCAR3 cells after 48 hrs by trypan blue dye exclusion assay; settings: OVCAR-3, 48 h
OVCAR-8 = assay: Cytotoxicity against human OVCAR8 cells after 48 hrs by trypan blue dye exclusion assay; settings: OVCAR-8, 48 h
NCI-H522 = assay: Cytotoxicity against human NCI-H522 cells after 48 hrs by trypan blue dye exclusion assay; settings: NCI-H522, 48 h
A498 = assay: Cytotoxicity against human A498 cells after 48 hrs by trypan blue dye exclusion assay; settings: A498, 48 h
MDA-MB-468 = assay: Cytotoxicity against human MDA-MB-468 cells after 48 hrs by trypan blue dye exclusion assay; settings: MDA-MB-468, 48 h
M14 = assay: Cytotoxicity against human M14 cells after 48 hrs by trypan blue dye exclusion assay; settings: M14, 48 h
HL-60(TB) = assay: Cytotoxicity against human HL-60(TB) cells after 48 hrs by trypan blue dye exclusion assay; settings: HL-60, 48 h
SF-539 = assay: Cytotoxicity against human SF539 cells after 48 hrs by trypan blue dye exclusion assay; settings: SF-539, 48 h
CAKI-1 = assay: Cytotoxicity against human CAKI-1 cells after 48 hrs by trypan blue dye exclusion assay; settings: CAKI-1, 48 h
MDA-MB-435 = assay: Cytotoxicity against human MDA-MB-435 cells after 48 hrs by trypan blue dye exclusion assay; settings: MDA-MB-435, 48 h
BT-549 = assay: Cytotoxicity against human BT549 cells after 48 hrs by trypan blue dye exclusion assay; settings: BT-549, 48 h
NCI/ADR-RES = assay: Cytotoxicity against human NCI/ADR-RES cells after 48 hrs by trypan blue dye exclusion assay
IGROV-1 = assay: Cytotoxicity against human IGROV1 cells after 48 hrs by trypan blue dye exclusion assay; settings: IGROV-1, 48 h
K562 = assay: Cytotoxicity against human K562 cells after 48 hrs by trypan blue dye exclusion assay; settings: K562, 48 h
RPMI-8226 = assay: Cytotoxicity against human RPMI8226 cells after 48 hrs by trypan blue dye exclusion assay; settings: RPMI-8226, 48 h
CCRF-CEM = assay: Cytotoxicity against human CCRF-CEM cells after 48 hrs by trypan blue dye exclusion assay
LOX IMVI = assay: Cytotoxicity against human LOXIMVI cells after 48 hrs by trypan blue dye exclusion assay
UO-31 = assay: Cytotoxicity against human UO31 cells after 48 hrs by trypan blue dye exclusion assay; settings: UO-31, 48 h
KM12 = assay: Cytotoxicity against human KM12 cells after 48 hrs by trypan blue dye exclusion assay; settings: KM12, 48 h
DU-145 = assay: Cytotoxicity against human DU145 cells after 48 hrs by trypan blue dye exclusion assay; settings: DU-145, 48 h
NCI-H226 = assay: Cytotoxicity against human NCI-H226 cells after 48 hrs by trypan blue dye exclusion assay; settings: NCI-H226, 48 h
SK-MEL-2 = assay: Cytotoxicity against human SK-MEL-2 cells after 48 hrs by trypan blue dye exclusion assay; settings: SK-MEL-2, 48 h
A549 = assay: Cytotoxicity against human A549 cells after 48 hrs by trypan blue dye exclusion assay; settings: A549, 48 h
NCI-H460 = assay: Cytotoxicity against human NCI-H460 cells after 48 hrs by trypan blue dye exclusion assay; settings: NCI-H460, 48 h
HCT-116 = assay: Cytotoxicity against human HCT116 cells after 48 hrs by trypan blue dye exclusion assay; settings: HCT-116, 48 h
PC-3 = assay: Cytotoxicity against human PC3 cells after 48 hrs by trypan blue dye exclusion assay; settings: PC-3, 48 h
EKVX = assay: Cytotoxicity against human EKVX cells after 48 hrs by trypan blue dye exclusion assay
SF-295 = assay: Cytotoxicity against human SF295 cells after 48 hrs by trypan blue dye exclusion assay; settings: SF-295, 48 h
SR = assay: Cytotoxicity against human SR cells after 48 hrs by trypan blue dye exclusion assay
OVCAR-4 = assay: Cytotoxicity against human OVCAR4 cells after 48 hrs by trypan blue dye exclusion assay; settings: OVCAR-4, 48 h
UACC-257 = assay: Cytotoxicity against human UACC257 cells after 48 hrs by trypan blue dye exclusion assay; settings: UACC-257, 48 h
SK-MEL-5 = assay: Cytotoxicity against human SK-MEL-5 cells after 48 hrs by trypan blue dye exclusion assay; settings: SK-MEL-5, 48 h
HT-29 = assay: Cytotoxicity against human HT-29 cells after 48 hrs by trypan blue dye exclusion assay; settings: HT-29, 48 h
SK-MEL-28 = assay: Cytotoxicity against human SK-MEL-28 cells after 48 hrs by trypan blue dye exclusion assay; settings: SK-MEL-28, 48 h
HCT-15 = assay: Cytotoxicity against human HCT15 cells after 48 hrs by trypan blue dye exclusion assay; settings: HCT-15, 48 h
NCI-H322M = assay: Cytotoxicity against human NCI-H322M cells after 48 hrs by trypan blue dye exclusion assay
786-0 = assay: Cytotoxicity against human 786-0 cells after 48 hrs by trypan blue dye exclusion assay; settings: 786-0, 48 h
[1] = Cytotoxicity against human Hs 578T cells after 48 hrs by trypan blue dye exclusion assay
SK-OV-3 = assay: Cytotoxicity against human SKOV3 cells after 48 hrs by trypan blue dye exclusion assay; settings: SK-OV-3, 48 h
MOLT-4 = assay: Cytotoxicity against human MOLT4 cells after 48 hrs by trypan blue dye exclusion assay; settings: MOLT-4, 48 h
COLO 205 = assay: Cytotoxicity against human COLO205 cells after 48 hrs by trypan blue dye exclusion assay; settings: COLO 205, 48 h
SW-620 = assay: Cytotoxicity against human SW620 cells after 48 hrs by trypan blue dye exclusion assay; settings: SW-620, 48 h
UACC-62 = assay: Cytotoxicity against human UACC62 cells after 48 hrs by trypan blue dye exclusion assay; settings: UACC-62, 48 h
SN12C = assay: Cytotoxicity against human SN12C cells after 48 hrs by trypan blue dye exclusion assay
Malme-3M = assay: Cytotoxicity against human MALME-3M cells after 48 hrs by trypan blue dye exclusion assay
ACHN = assay: Cytotoxicity against human ACHN cells after 48 hrs by trypan blue dye exclusion assay
TK-10 = assay: Cytotoxicity against human TK10 cells after 48 hrs by trypan blue dye exclusion assay; settings: TK-10, 48 h

With `COc1cc([C@@H]2c3cc4c(cc3[C@H](O)[C@H]3COC(=O)[C@H]23)OCO4)cc(OC)c1OC` [PODOFILOX] the GI50 (NCI-H23) was 10 nM, the GI50 (T47D) was 84500 nM and the GI50 (MDA-MB-231) was 10 nM. It also gave a GI50 (SNB-75) of 659 nM, a GI50 (RXF 393) of 10 nM and a GI50 (MCF7) of 10 nM. It also gave a GI50 (HOP-62) of 21.1 nM, a GI50 (HCC 2998) of 12.3 nM and a GI50 (HOP-92) of 34.1 nM. It also gave a GI50 (SNB-19) of 10 nM, a GI50 (SF-268) of 10 nM and a GI50 (U-251) of 10.7 nM. It also gave a GI50 (OVCAR-3) of 11.3 nM, a GI50 (OVCAR-8) of 10 nM and a GI50 (NCI-H522) of 10 nM. The GI50 (A498) was 10 nM, the GI50 (MDA-MB-468) was 10 nM and the GI50 (M14) was 13.1 nM. It also gave a GI50 (HL-60(TB)) of 10 nM, a GI50 (SF-539) of 10 nM and a GI50 (CAKI-1) of 89.7 nM. It also gave a GI50 (MDA-MB-435) of 10 nM, a GI50 (BT-549) of 10 nM and a GI50 (NCI/ADR-RES) of 10 nM. It also gave a GI50 (IGROV-1) of 13.2 nM, a GI50 (K562) of 215 nM and a GI50 (RPMI-8226) of 10 nM. The GI50 (CCRF-CEM) was 10 nM, the GI50 (LOX IMVI) was 10 nM and the GI50 (UO-31) was 16.6 nM. For the same compound, the GI50 (KM12) was 10 nM, the GI50 (DU-145) was 10 nM and the GI50 (NCI-H226) was 10 nM. It also gave a GI50 (SK-MEL-2) of 14.9 nM, a GI50 (A549) of 13.8 nM and a GI50 (NCI-H460) of 10.6 nM. The GI50 (HCT-116) was 10 nM, the GI50 (PC-3) was 10 nM and the GI50 (EKVX) was 10 nM. For the same compound, the GI50 (SF-295) was 10 nM, the GI50 (SR) was 10 nM and the GI50 (OVCAR-4) was 17.5 nM. For the same compound, the GI50 (UACC-257) was 10 nM, the GI50 (SK-MEL-5) was 10 nM and the GI50 (HT-29) was 10 nM. It also gave a GI50 (SK-MEL-28) of 10 nM, a GI50 (HCT-15) of 13.5 nM and a GI50 (NCI-H322M) of 10 nM. For the same compound, the GI50 (786-0) was 16.9 nM, the GI50 [1] was 10 nM and the GI50 (SK-OV-3) was 10 nM. For the same compound, the GI50 (MOLT-4) was 10 nM, the GI50 (COLO 205) was 10 nM and the GI50 (SW-620) was 10 nM. The GI50 (UACC-62) was 10 nM, the GI50 (SN12C) was 17.1 nM and the GI50 (Malme-3M) was 47300 nM. The GI50 (ACHN) was 10 nM and the GI50 (TK-10) was 30.5 nM.
